Usually IC50 stands for the concentration that inhibits the measured activity by half.

For the assay, the target named is T1, PAR4 (Homo sapiens, UniProt Q96RI0).
T1 construct: expressed in transfected cells; host or cells: HEK293 PAR4 Clone 1.2A (BMS Arctic ID 383940)
T1 sequence (Q96RI0 18-385): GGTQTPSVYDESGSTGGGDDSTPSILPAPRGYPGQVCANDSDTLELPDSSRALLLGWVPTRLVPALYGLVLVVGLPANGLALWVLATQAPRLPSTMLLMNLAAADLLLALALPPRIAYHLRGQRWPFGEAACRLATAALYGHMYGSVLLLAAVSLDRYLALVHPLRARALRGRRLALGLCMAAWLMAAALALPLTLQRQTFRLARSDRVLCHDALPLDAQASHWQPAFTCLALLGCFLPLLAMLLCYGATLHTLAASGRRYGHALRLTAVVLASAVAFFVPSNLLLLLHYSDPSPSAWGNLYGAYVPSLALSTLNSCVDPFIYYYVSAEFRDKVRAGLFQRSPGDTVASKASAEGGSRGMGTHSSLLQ
The assay is described as follows: PAR4 FLIPR assay (antagonism of agonist peptide-induced calcium mobilization). The format is cell-based. The source says:
The FLIPR assay is an exemplary in vitro assay for measuring the activity of the PAR4 antagonists of the present invention. In this assay, intracellular calcium mobilization is induced in PAR4 expressing cells by a PAR4 agonist and calcium mobilization is monitored.
HEK293 cells stably expressing PAR4 were generated by a standard method of transfection of human PAR4 (F2R23) cDNA expression vector and selected based on PAR4 protein expression or mRNA expression. […] These cells also express endogenous PAR1 and can elicit calcium signal upon stimulation with PAR1 agonist peptide. Therefore, the same cells were also used to determine selectivity against PAR1 and agonist activity for both receptors. Cells from HEK293 PAR4 Clone 1.2A (BMS Arctic ID 383940) were propagated and used for calcium mobilization studies.
FLIPR-based calcium mobilization assay in HEK293 cells was used to measure PAR4 antagonism, agonism, and selectivity against PAR1. The activity of the PAR4 antagonists of the present invention were tested in PAR4 expressing cells by monitoring H-Ala-Phe(4-F)-Pro-Gly-Trp-Leu-Val-Lys-Asn-Gy-NH2-induced intracellular calcium mobilization. Counter screens for agonist activity and PAR1 antagonist activity were also performed. Briefly, PAR1/PAR4-expressing HEK293 cells were grown in DMEM (Life Technology, Grand Island, NY) containing 10% heat-inactivated FBS, 1% Penicillin-Streptomycin, 10 μg/mL blasticidin, and 100 μg/mL Zeocin at 37° C. with 5% CO2. Cells were plated overnight prior to the experiment in a black 384-well Purecoat Amine clear bottom plate (Becton Dickinson Biosciences, San Jose, CA) at 10,000 cells/well in 30 μL growth medium and incubated in a humidified chamber at 37° C. with 5% CO2 overnight. Prior to compound addition, the cell medium was replaced with 40 μL of 1× calcium and magnesium-containing Hank's Balanced Saline Solution (HBSS) (with 20 mM HEPES) and 1:1000 diluted fluorescent calcium indicator (Codex Biosolutions, Gaithersburg, MD). After a 30 minute incubation period at 37° C. and a further 30 minute incubation and equilibration period at room temperature, 20 μL test compound (diluted in 1×HBSS buffer) was added at various concentrations at 0.17% dimethyl sulfoxide (DMSO) final concentration. Changes in fluorescence intensity were measured using a Functional Drug Screening System (FDSS, Hamamatsu, Japan) to determine agonist activities. The cells were then incubated for 30 minutes at room temperature followed by addition of 20 μL of agonist peptide for antagonist activity measurement. […] Compound potency was derived from 11-point concentration-response curves.
A general note: Calcium assays in cells follow changes in intracellular calcium, usually with a dye or a luminescent sensor.
For `COc1cc(NC(=O)OC[C@H]2COc3c(cc(Cl)c4nc(-c5cc(C)cc6nc(OC)cnc56)sc34)O2)ccn1` [Example 36, (R)-(4-chloro-2-(2-methoxy-7-methylquinoxalin-5-yl)-7,8-dihydro-[1,4]dioxino[2′,3′:3,4]benzo[1,2-d]thiazol-7-yl)methyl (2-methoxypyridin-4-yl)carbamate], the IC50 is 1.7 nM. The figure for `COc1cnc2c(-c3nc4c(Cl)cc5c(c4s3)OC[C@H](COC(=O)Nc3cncc(C#N)c3)O5)cc(C)cc2n1` [Example 37, (R)-(4-chloro-2-(2-methoxy-7-methylquinoxalin-5-yl)-7,8-dihydro-[1,4]dioxino[2′,3′:3,4]benzo[1,2-d]thiazol-7-yl)methyl (5-cyanopyridin-3-yl)carbamate] is 1.5 nM; for `COc1cnc2c(-c3nc4c(C)cc5c(c4s3)OC[C@H](COC(=O)Nc3ccc(C#N)nc3)O5)cc(C)cc2n1` [Example 38, (R)-(2-(2-methoxy-7-methylquinoxalin-5-yl)-4-methyl-7,8-dihydro-[1,4]dioxino[2′,3′:3,4]benzo[1,2-d]thiazol-7-yl)methyl (6-cyanopyridin-3-yl)carbamate] it is 1.3 nM; for `COc1cnc2c(-c3nc4c(Cl)cc5c(c4s3)OC[C@H](COC(=O)Nc3ccc4scnc4c3)O5)cc(C)cc2n1` [Example 39, (R)-(4-chloro-2-(2-methoxy-7-methylquinoxalin-5-yl)-7,8-dihydro-[1,4]dioxino[2′,3′:3,4]benzo[1,2-d]thiazol-7-yl)methyl benzo[d]thiazol-5-ylcarbamate] it is 18 nM. The figure for `COc1cnc2c(-c3nc4c(Cl)cc5c(c4s3)OC[C@H](COC(=O)Nc3ccc4ncsc4c3)O5)cc(C)cc2n1` [Example 40, (R)-(4-chloro-2-(2-methoxy-7-methylquinoxalin-5-yl)-7,8-dihydro-[1,4]dioxino[2′,3′:3,4]benzo[1,2-d]thiazol-7-yl)methyl benzo[d]thiazol-6-ylcarbamate] is 97 nM; for `COc1cnc2c(-c3nc4c(C)cc5c(c4s3)OC[C@H](COC(=O)Nc3ccc(F)nc3)O5)cc(C)cc2n1` [Example 41, (R)-(2-(2-methoxy-7-methylquinoxalin-5-yl)-4-methyl-7,8-dihydro-[1,4]dioxino[2′,3′:3,4]benzo[1,2-d]thiazol-7-yl)methyl (6-fluoropyridin-3-yl)carbamate] it is 1.6 nM; for `COc1cnc2c(-c3nc4c(C)cc5c(c4s3)OC[C@H](COC(=O)Nc3cncc(F)c3)O5)cc(C)cc2n1` [Example 42, (R)-(2-(2-methoxy-7-methylquinoxalin-5-yl)-4-methyl-7,8-dihydro-[1,4]dioxino[2′,3′:3,4]benzo[1,2-d]thiazol-7-yl)methyl (5-fluoropyridin-3-yl)carbamate] it is 50 nM.

Turning to `COc1cncc(NC(=O)OC[C@H]2COc3c(cc(C)c4nc(-c5cc(C)cc6nc(OC)cnc56)sc34)O2)c1` [Example 43, (R)-(2-(2-methoxy-7-methylquinoxalin-5-yl)-4-methyl-7,8-dihydro-[1,4]dioxino[2′,3′:3,4]benzo[1,2-d]thiazol-7-yl)methyl (5-methoxypyridin-3-yl)carbamate], the IC50 came out at 7.9 nM. As for `COc1cnc2c(-c3nc4c(C)cc5c(c4s3)OC[C@H](COC(=O)Nc3ccnc(C)c3)O5)cc(C)cc2n1` [Example 44, (R)-(2-(2-methoxy-7-methylquinoxalin-5-yl)-4-methyl-7,8-dihydro-[1,4]dioxino[2′,3′:3,4]benzo[1,2-d]thiazol-7-yl)methyl (2-methylpyridin-4-yl)carbamate], the IC50 stood at 0.8 nM.

Regarding `COc1cc(NC(=O)OC[C@H]2COc3c(cc(C)c4nc(-c5cc(C)cc6nc(OC)cnc56)sc34)O2)ccn1` [Example 45, (R)-(2-(2-methoxy-7-methylquinoxalin-5-yl)-4-methyl-7,8-dihydro-[1,4]dioxino[2′,3′:3,4]benzo[1,2-d]thiazol-7-yl)methyl (2-methoxypyridin-4-yl)carbamate], the IC50 was determined as 1.1 nM. The figure for `COc1cnc2c(-c3nc4c(C)cc5c(c4s3)OC[C@H](COC(=O)Nc3cccc(C#N)c3)O5)cc(C)cc2n1` [Example 46, (R)-(2-(2-methoxy-7-methylquinoxalin-5-yl)-4-methyl-7,8-dihydro-[1,4]dioxino[2′,3′:3,4]benzo[1,2-d]thiazol-7-yl)methyl (3-cyanophenyl)carbamate] is 1 nM. The figure for `COc1cnc2c(-c3nc4c(C)cc5c(c4s3)OC[C@H](COC(=O)Nc3ccc(Cl)nc3)O5)cc(C)cc2n1` [Example 47, (R)-(2-(2-methoxy-7-methylquinoxalin-5-yl)-4-methyl-7,8-dihydro-[1,4]dioxino[2′,3′:3,4]benzo[1,2-d]thiazol-7-yl)methyl (6-chloropyridin-3-yl)carbamate] is 1.2 nM; for `COc1cnc2c(-c3nc4c(C)cc5c(c4s3)OC[C@H](COC(=O)Nc3ccncc3)O5)cc(C)cc2n1` [Example 48, (R)-(2-(2-methoxy-7-methylquinoxalin-5-yl)-4-methyl-7,8-dihydro-[1,4]dioxino[2′,3′:3,4]benzo[1,2-d]thiazol-7-yl)methyl pyridin-4-ylcarbamate] it is 25 nM; for `COc1cnc2c(-c3nc4c(C)cc5c(c4s3)OC[C@H](COC(=O)Nc3ccc4scnc4c3)O5)cc(C)cc2n1` [Example 49, (R)-(2-(2-methoxy-7-methylquinoxalin-5-yl)-4-methyl-7,8-dihydro-[1,4]dioxino[2′,3′:3,4]benzo[1,2-d]thiazol-7-yl)methyl benzo[d]thiazol-5-ylcarbamate] it is 49 nM.

With `COc1cnc2c(-c3nc4c(C)cc5c(c4s3)OC[C@H](COC(=O)Nc3ccc4ncsc4c3)O5)cc(C)cc2n1` [Example 50, (R)-(2-(2-methoxy-7-methylquinoxalin-5-yl)-4-methyl-7,8-dihydro-[1,4]dioxino[2′,3′:3,4]benzo[1,2-d]thiazol-7-yl)methyl benzo[d]thiazol-6-ylcarbamate], the IC50 is 140 nM. The figure for `COc1cnc2c(-c3nc4c(C)cc5c(c4s3)OC[C@H](COC(=O)Nc3cncc(C#N)c3)O5)cc(C)cc2n1` [Example 51, (R)-(2-(2-methoxy-7-methylquinoxalin-5-yl)-4-methyl-7,8-dihydro-[1,4]dioxino[2′,3′:3,4]benzo[1,2-d]thiazol-7-yl)methyl (5-cyanopyridin-3-yl)carbamate] is 16 nM. The figure for `COc1cnc2c(-c3nc4c(C)cc5c(c4s3)OC[C@H](COC(=O)Nc3ccc(-c4cccs4)nc3)O5)cc(C)cc2n1` [Example 53, (R)-(2-(2-methoxy-7-methylquinoxalin-5-yl)-4-methyl-7,8-dihydro-[1,4]dioxino [2′,3′:3,4]benzo[1,2-d]thiazol-7-yl)methyl (6-(thiophen-2-yl)pyridin-3-yl)carbamate] is 54 nM. The figure for `COc1cnc2c(-c3nc4c(C)cc5c(c4s3)OC[C@H](COC(=O)Nc3cnc4c(c3)ncn4C)O5)cc(C)cc2n1` [Example 54, (R)-(2-(2-methoxy-7-methylquinoxalin-5-yl)-4-methyl-7,8-dihydro-[1,4]dioxino[2′,3′:3,4]benzo[1,2-d]thiazol-7-yl)methyl (3-methyl-3H-imidazo[4,5-b]pyridin-6-yl)carbamate] is 1.6 nM.

Source of the values: patent US11932658B2 (BRISTOL-MYERS SQUIBB COMPANY, priority 2016, dated 2024).
